Data from US20060182685A1, “Hollow fiber technique for in vivo study of cell populations” (priority 2004, published 2006).
Where two headings read alike, the source gives them in different places. Marks after values point to notes of the source that are not given here.

Assays:
[1] = test system: hollow fiber-encapsulated M. tuberculosis H37Rv-lux
[2] = Serum antibiotic concentrations in mice on medicated diet; settings: for Cmean: serum; for AUC: SKH1, mouse, in vivo
[3] = cited from earlier work

SMILES: NNC(=O)c1ccncc1 [Isoniazid, isoniazid]
- activity against bacilli in the hollow fiber model in vivo [1]: somewhat effective
- Cmean ([2]; Isoniazid, SKH1 mice (0.02% diet)): 0.77 ± 0.21 mg/L
- AUC ([2]; 0.02 % of diet): 18.5 ± 5 µg·h/mL
- AUC ([3]; Isoniazid, Humans (5 mg/kg), rapid acetylators): 19.9 ± 6.1^a mg h/L
- AUC ([3]; human, in vivo, 5 mg/kg): 48.2 ± 1.5^b mg h/L

SMILES: CO[C@H]1/C=C/O[C@@]2(C)Oc3c(C)c(O)c4c(O)c(c(/C=N/N5CCN(C)CC5)c(O)c4c3C2=O)NC(=O)/C(C)=C\C=C\[C@H](C)[C@H](O)[C@@H](C)[C@@H](O)[C@@H](C)[C@H](OC(C)=O)[C@@H]1C [Rifampin, rifampin]
- activity against bacilli in the hollow fiber model in vivo [1]: magnitude of its effect greater than that of isoniazid
- kill of hollow fiber-encapsulated bacilli ([1]; in vivo): 3 log
- Cmean ([2]; Rifampin, SKH1 mice (0.05% diet)): 3.09 ± 0.41 mg/L
- AUC ([2]; 0.05 % of diet): 74.2 ± 9.8 µg·h/mL
- AUC ([3]; human, in vivo, 10 mg/kg): 117.93 mg·h/L
- Cmax ([3]; human, in vivo, 10 mg/kg): 14.91 µg/mL
